Results reported in ChEMBL document CHEMBL1275510, “Ceftibuten resistance and treatment failure of Neisseria gonorrhoeae infection” (Antimicrob Agents Chemother, 2008).
Values after ≈ are worked out from the molar mass of the structure shown.

Tests used:
[1] = Cmax in Neisseria gonorrhoeae infected patient at 400 mg, po; format: ADME, organism-based; set-up: dose 400 mg, route oral; settings: human, in vivo
Neisseria gonorrhoeae [2] = assay: Antimicrobial activity against penicillin-,ofloxacin- and tetracyclin-resistant Neisseria gonorrhoeae multiantigen sequence type 835 isolate 3 harboring penA gene by Etest; format: functional
Serum = assay: Protein binding in Neisseria gonorrhoeae infected patient serum at 400 mg, po; format: ADME, organism-based; settings: human, in vivo
[3] = Half life in Neisseria gonorrhoeae infected patient at 400 mg, po; format: ADME, organism-based; settings: human, in vivo
Neisseria gonorrhoeae [4] = assay: Antimicrobial activity against penicillin-,ofloxacin- and tetracyclin-resistant Neisseria gonorrhoeae multiantigen sequence type 835 isolate 10 harboring penA gene by Etest; format: functional
[5] = Oral bioavailability in Neisseria gonorrhoeae infected patient at 400 mg, po; format: ADME, organism-based; settings: human, in vivo
Neisseria gonorrhoeae [6] = assay: Antimicrobial activity against penicillin-,ofloxacin- and tetracyclin-resistant Neisseria gonorrhoeae multiantigen sequence type 835 isolate 9 harboring penA gene by Etest; format: functional
Neisseria gonorrhoeae [7] = assay: Antimicrobial activity against penicillin-,ofloxacin- and tetracyclin-resistant Neisseria gonorrhoeae multiantigen sequence type 835 isolate 8 harboring penA gene by Etest; format: functional
Neisseria gonorrhoeae [8] = assay: Antimicrobial activity against penicillin-,ofloxacin- and tetracyclin-resistant Neisseria gonorrhoeae multiantigen sequence type 835 isolate 5 harboring penA gene by Etest; format: functional
Neisseria gonorrhoeae [9] = assay: Antimicrobial activity against penicillin-,ofloxacin- and tetracyclin-resistant Neisseria gonorrhoeae multiantigen sequence type 835 isolate 7 harboring penA gene by Etest; format: functional
Neisseria gonorrhoeae [10] = assay: Antimicrobial activity against penicillin-,ofloxacin- and tetracyclin-resistant Neisseria gonorrhoeae multiantigen sequence type 2469 isolate 11 harboring penA gene by Etest; format: functional
Neisseria gonorrhoeae [11] = assay: Antimicrobial activity against penicillin-,ofloxacin- and tetracyclin-resistant Neisseria gonorrhoeae multiantigen sequence type 835 isolate 1 harboring penA gene by Etest; format: functional
Neisseria gonorrhoeae [12] = assay: Antimicrobial activity against penicillin-,ofloxacin- and tetracyclin-resistant Neisseria gonorrhoeae multiantigen sequence type 835 isolate 6 harboring penA gene by Etest; format: functional
Neisseria gonorrhoeae [13] = assay: Antimicrobial activity against penicillin-,ofloxacin- and tetracyclin-resistant Neisseria gonorrhoeae multiantigen sequence type 835 isolate 4 harboring penA gene by Etest; format: functional
Neisseria gonorrhoeae [14] = assay: Antimicrobial activity against penicillin-,ofloxacin- and tetracyclin-resistant Neisseria gonorrhoeae multiantigen sequence type 835 isolate 2 harboring penA gene by Etest; format: functional
Neisseria gonorrhoeae [15] = assay: Antimicrobial activity against penicillin-,ofloxacin- and tetracyclin-resistant Neisseria gonorrhoeae multiantigen sequence type 835 isolate 8 harboring penA gene by agar dilution method; format: functional
Neisseria gonorrhoeae [16] = assay: Antimicrobial activity against penicillin-,ofloxacin- and tetracyclin-resistant Neisseria gonorrhoeae multiantigen sequence type 2469 isolate 11 harboring penA gene by disk diffusion method; format: functional
Neisseria gonorrhoeae [17] = assay: Antimicrobial activity against penicillin-,ofloxacin- and tetracyclin-resistant Neisseria gonorrhoeae multiantigen sequence type 2469 isolate 11 harboring penA gene by agar dilution method; format: functional
Neisseria gonorrhoeae [18] = assay: Antimicrobial activity against penicillin-,ofloxacin- and tetracyclin-resistant Neisseria gonorrhoeae multiantigen sequence type 835 isolate 6 harboring penA gene by disk diffusion method; format: functional
Neisseria gonorrhoeae [19] = assay: Antimicrobial activity against penicillin-,ofloxacin- and tetracyclin-resistant Neisseria gonorrhoeae multiantigen sequence type 835 isolate 3 harboring penA gene by disk diffusion method; format: functional
Neisseria gonorrhoeae [20] = assay: Antimicrobial activity against penicillin-,ofloxacin- and tetracyclin-resistant Neisseria gonorrhoeae multiantigen sequence type 835 isolate 10 harboring penA gene by disk diffusion method; format: functional
Neisseria gonorrhoeae [21] = assay: Antimicrobial activity against penicillin-,ofloxacin- and tetracyclin-resistant Neisseria gonorrhoeae multiantigen sequence type 835 isolate 7 harboring penA gene by agar dilution method; format: functional
Neisseria gonorrhoeae [22] = assay: Antimicrobial activity against penicillin-,ofloxacin- and tetracyclin-resistant Neisseria gonorrhoeae multiantigen sequence type 835 isolate 4 harboring penA gene by disk diffusion method; format: functional
Neisseria gonorrhoeae [23] = assay: Antimicrobial activity against penicillin-,ofloxacin- and tetracyclin-resistant Neisseria gonorrhoeae multiantigen sequence type 835 isolate 5 harboring penA gene by disk diffusion method; format: functional
Neisseria gonorrhoeae [24] = assay: Antimicrobial activity against penicillin-,ofloxacin- and tetracyclin-resistant Neisseria gonorrhoeae multiantigen sequence type 835 isolate 2 harboring penA gene by disk diffusion method; format: functional
Neisseria gonorrhoeae [25] = assay: Antimicrobial activity against penicillin-,ofloxacin- and tetracyclin-resistant Neisseria gonorrhoeae multiantigen sequence type 835 isolate 1 harboring penA gene by agar dilution method; format: functional
Neisseria gonorrhoeae [26] = assay: Antimicrobial activity against penicillin-,ofloxacin- and tetracyclin-resistant Neisseria gonorrhoeae multiantigen sequence type 835 isolate 1 harboring penA gene by disk diffusion method; format: functional
Neisseria gonorrhoeae [27] = assay: Antimicrobial activity against penicillin-,ofloxacin- and tetracyclin-resistant Neisseria gonorrhoeae multiantigen sequence type 835 isolate 8 harboring penA gene by disk diffusion method; format: functional
Neisseria gonorrhoeae [28] = assay: Antimicrobial activity against penicillin-,ofloxacin- and tetracyclin resistant Neisseria gonorrhoeae by […]; format: functional
Neisseria gonorrhoeae [29] = assay: Antimicrobial activity against penicillin-,ofloxacin- and tetracyclin resistant penA-negative Neisseria gonorrhoeae by […]; format: functional
Neisseria gonorrhoeae [30] = assay: Antimicrobial activity against penicillin-,ofloxacin- and tetracyclin-resistant Neisseria gonorrhoeae multiantigen sequence type 835 isolate 7 harboring penA gene by disk diffusion method; format: functional
Neisseria gonorrhoeae [31] = assay: Antimicrobial activity against penicillin-,ofloxacin- and tetracyclin-resistant Neisseria gonorrhoeae multiantigen sequence type 835 isolate 4 harboring penA gene by agar dilution method; format: functional
Neisseria gonorrhoeae [32] = assay: Antimicrobial activity against penicillin-,ofloxacin- and tetracyclin-resistant Neisseria gonorrhoeae multiantigen sequence type 835 isolate 5 harboring penA gene by agar dilution method; format: functional
Neisseria gonorrhoeae [33] = assay: Antimicrobial activity against penicillin-,ofloxacin- and tetracyclin-resistant Neisseria gonorrhoeae multiantigen sequence type 835 isolate 9 harboring penA gene by disk diffusion method; format: functional
Neisseria gonorrhoeae [34] = assay: Antimicrobial activity against penicillin-,ofloxacin- and tetracyclin-resistant Neisseria gonorrhoeae multiantigen sequence type 835 isolate 9 harboring penA gene by agar dilution method; format: functional
Neisseria gonorrhoeae [35] = assay: Antimicrobial activity against penicillin-,ofloxacin- and tetracyclin-resistant Neisseria gonorrhoeae multiantigen sequence type 835 isolate 6 harboring penA gene by agar dilution method; format: functional
Neisseria gonorrhoeae [36] = assay: Antimicrobial activity against penicillin-,ofloxacin- and tetracyclin-resistant Neisseria gonorrhoeae multiantigen sequence type 835 isolate 3 harboring penA gene by agar dilution method; format: functional
Neisseria gonorrhoeae [37] = assay: Antimicrobial activity against penicillin-,ofloxacin- and tetracyclin-resistant Neisseria gonorrhoeae multiantigen sequence type 835 isolate 2 harboring penA gene by agar dilution method; format: functional
Neisseria gonorrhoeae [38] = assay: Antimicrobial activity against penicillin-,ofloxacin- and tetracyclin-resistant Neisseria gonorrhoeae multiantigen sequence type 835 isolate 10 harboring penA gene by agar dilution method; format: functional

C=CC1=C(C(=O)O)N2C(=O)[C@@H](NC(=O)/C(=N\OCC(=O)O)c3csc(N)n3)[C@H]2SC1 [CEFIXIME]
Cmax [1]: 3000 ng/mL
MIC (Neisseria gonorrhoeae [2]): 0.25 µg/mL (≈ 0.551 µM)
Activity (Serum): 65%
half-life [3]: 3.1 h
MIC (Neisseria gonorrhoeae [4]): 0.25 µg/mL (≈ 0.551 µM)
bioavailability [5]: 50%
MIC (Neisseria gonorrhoeae [6]): 0.125 µg/mL (≈ 0.276 µM)
MIC (Neisseria gonorrhoeae [7]): 0.25 µg/mL (≈ 0.551 µM)
MIC (Neisseria gonorrhoeae [8]): 0.25 µg/mL (≈ 0.551 µM)
MIC (Neisseria gonorrhoeae [9]): 0.25 µg/mL (≈ 0.551 µM)
MIC (Neisseria gonorrhoeae [10]): 0.125 µg/mL (≈ 0.276 µM)
MIC (Neisseria gonorrhoeae [11]): 0.25 µg/mL (≈ 0.551 µM)
MIC (Neisseria gonorrhoeae [12]): 0.25 µg/mL (≈ 0.551 µM)
MIC (Neisseria gonorrhoeae [13]): 0.25 µg/mL (≈ 0.551 µM)
MIC (Neisseria gonorrhoeae [14]): 0.25 µg/mL (≈ 0.551 µM)

CN[C@@H]1[C@H](O)[C@H](NC)[C@H]2O[C@@]3(O)C(=O)C[C@@H](C)O[C@H]3O[C@@H]2[C@H]1O [SPECTINOMYCIN]
MIC (Neisseria gonorrhoeae [2]): 16 µg/mL (≈ 48.1 µM)
MIC (Neisseria gonorrhoeae [4]): 8 µg/mL (≈ 24.1 µM)
MIC (Neisseria gonorrhoeae [6]): 8 µg/mL (≈ 24.1 µM)
MIC (Neisseria gonorrhoeae [7]): 8 µg/mL (≈ 24.1 µM)
MIC (Neisseria gonorrhoeae [8]): 8 µg/mL (≈ 24.1 µM)
MIC (Neisseria gonorrhoeae [9]): 8 µg/mL (≈ 24.1 µM)
MIC (Neisseria gonorrhoeae [10]): 8 µg/mL (≈ 24.1 µM)
MIC (Neisseria gonorrhoeae [11]): 8 µg/mL (≈ 24.1 µM)
MIC (Neisseria gonorrhoeae [12]): 8 µg/mL (≈ 24.1 µM)
MIC (Neisseria gonorrhoeae [13]): 8 µg/mL (≈ 24.1 µM)
MIC (Neisseria gonorrhoeae [14]): 16 µg/mL (≈ 48.1 µM)

CO/N=C(\C(=O)N[C@@H]1C(=O)N2C(C(=O)O)=C(CSc3nc(=O)c(O)nn3C)CS[C@H]12)c1csc(N)n1 [CEFTRIAXONE]
MIC (Neisseria gonorrhoeae [2]): 0.064 µg/mL (≈ 0.115 µM)
MIC (Neisseria gonorrhoeae [4]): 0.064 µg/mL (≈ 0.115 µM)
MIC (Neisseria gonorrhoeae [6]): 0.064 µg/mL (≈ 0.115 µM)
MIC (Neisseria gonorrhoeae [7]): 0.125 µg/mL (≈ 0.225 µM)
MIC (Neisseria gonorrhoeae [8]): 0.064 µg/mL (≈ 0.115 µM)
MIC (Neisseria gonorrhoeae [9]): 0.064 µg/mL (≈ 0.115 µM)
MIC (Neisseria gonorrhoeae [10]): 0.064 µg/mL (≈ 0.115 µM)
MIC (Neisseria gonorrhoeae [11]): 0.064 µg/mL (≈ 0.115 µM)
MIC (Neisseria gonorrhoeae [12]): 0.064 µg/mL (≈ 0.115 µM)
MIC (Neisseria gonorrhoeae [13]): 0.064 µg/mL (≈ 0.115 µM)
MIC (Neisseria gonorrhoeae [14]): 0.064 µg/mL (≈ 0.115 µM)

Nc1nc(/C(=C/CC(=O)O)C(=O)N[C@@H]2C(=O)N3C(C(=O)O)=CCS[C@H]23)cs1 [CEFTIBUTEN]
MIC (Neisseria gonorrhoeae [15]): 8 µg/mL (≈ 19.5 µM)
diameter of the inhibition zone (DIZ) (Neisseria gonorrhoeae [16]): 23 mm
MIC (Neisseria gonorrhoeae [17]): 8 µg/mL (≈ 19.5 µM)
diameter of the inhibition zone (DIZ) (Neisseria gonorrhoeae [18]): 22 mm
Cmax [1]: 15000 ng/mL
diameter of the inhibition zone (DIZ) (Neisseria gonorrhoeae [19]): 25 mm
diameter of the inhibition zone (DIZ) (Neisseria gonorrhoeae [20]): 19 mm
MIC (Neisseria gonorrhoeae [21]): 8 µg/mL (≈ 19.5 µM)
diameter of the inhibition zone (DIZ) (Neisseria gonorrhoeae [22]): 22 mm
diameter of the inhibition zone (DIZ) (Neisseria gonorrhoeae [23]): 20 mm
diameter of the inhibition zone (DIZ) (Neisseria gonorrhoeae [24]): 24 mm
MIC (Neisseria gonorrhoeae [25]): 8 µg/mL (≈ 19.5 µM)
Activity (Serum): 65%
diameter of the inhibition zone (DIZ) (Neisseria gonorrhoeae [26]): 26 mm
half-life [3]: 2.4 h
diameter of the inhibition zone (DIZ) (Neisseria gonorrhoeae [27]): 21 mm
diameter of the inhibition zone (DIZ) (Neisseria gonorrhoeae [28]): >=30 mm
MIC (Neisseria gonorrhoeae [29]): ≤ 1 µg/mL
diameter of the inhibition zone (DIZ) (Neisseria gonorrhoeae [30]): 25 mm
MIC (Neisseria gonorrhoeae [31]): 8 µg/mL (≈ 19.5 µM)
MIC (Neisseria gonorrhoeae [32]): 8 µg/mL (≈ 19.5 µM)
bioavailability [5]: 80%
diameter of the inhibition zone (DIZ) (Neisseria gonorrhoeae [33]): 27 mm
MIC (Neisseria gonorrhoeae [34]): 8 µg/mL (≈ 19.5 µM)
MIC (Neisseria gonorrhoeae [35]): 8 µg/mL (≈ 19.5 µM)
MIC (Neisseria gonorrhoeae [36]): 8 µg/mL (≈ 19.5 µM)
MIC (Neisseria gonorrhoeae [37]): 8 µg/mL (≈ 19.5 µM)
MIC (Neisseria gonorrhoeae [38]): 8 µg/mL (≈ 19.5 µM)
